In the experiment the test system is signal transduction system of living organisms. Kind of experiment: Cell culture experiments on bioactivity of the main constituent peptide. The experiment is classed as cell-based. Particulars: data not shown.

Regarding CH3CO-(Arg-Ala-Asp-Ala)4-NH2, the “bioactivity by acting on the signal transduction system of living organisms” value was “does not exhibit bioactivity”.

Source of the values: patent publication US20200164100A1, “SURGICAL METHODS EMPLOYING PURIFIED AMPHIPHILIC PEPTIDE COMPOSITIONS” (priority 2013, published 2020).
